Data published in EP3693362B1, “PARASITIC PLANT GERMINATION REGULATOR” (National University Corporation Tokai National Higher …, priority 2017, dated 2019).
Where two headings read alike, the source gives them in different places.

Legend:
Test in all cases: Affinity for strigolactone receptor, YLG probe competition (fluorescence)
Assay type in all cases: binding
AtD14 = molecular target: T1, AtD14 (Arabidopsis thaliana, UniProt Q9SQR3)
T1 construct: made in house; host or cells: E. coli
T1 sequence (Q9SQR3 1-267): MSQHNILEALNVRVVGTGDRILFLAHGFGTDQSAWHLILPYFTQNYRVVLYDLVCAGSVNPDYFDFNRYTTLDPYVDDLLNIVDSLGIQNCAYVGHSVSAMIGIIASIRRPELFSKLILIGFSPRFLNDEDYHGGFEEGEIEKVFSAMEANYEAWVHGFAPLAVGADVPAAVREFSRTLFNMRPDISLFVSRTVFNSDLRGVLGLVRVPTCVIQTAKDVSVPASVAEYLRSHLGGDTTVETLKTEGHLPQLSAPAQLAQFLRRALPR
From the text: PTL 1 reports that the affinity of a test compound for the strigolactone receptor can be evaluated by reacting strigolactone with a probe for evaluation of affinity for a strigolactone receptor (e.g., YLG) in the presence of the test compound, and measuring the fluorescence emitted from the decomposition product of YLG. […] The details are as follows.
(§1) An Arabidopsis thaliana strigolactone receptor (AtD14) was produced in accordance with a usual method. More specifically, cDNA of the receptor was obtained by RT-PCR, and expression and purification were carried out in E. coli. Additionally, Striga strigolactone receptors were produced by the method disclosed in PTL 1 (ShHTL1: amino acid SEQ ID NO: 1, ShHTL2: amino acid SEQ ID NO: 2, ShHTL3: amino acid SEQ ID NO: 3, ShHTL4: amino acid SEQ ID NO: 4, ShHTL5: amino acid SEQ ID NO: 5, ShHTLS: amino acid SEQ ID NO: 6, ShHTL7: amino acid SEQ ID NO: 7, ShHTLS: amino acid SEQ ID NO: 8, ShHTL9: amino acid SEQ ID NO: 9, ShHTL10: amino acid SEQ ID NO: 10, and ShHTL11: amino acid SEQ ID NO: 11.)
(§2) One hundred microliters of a reaction solution containing each of the obtained strigolactone receptors ([…]), YLG (final concentration: […]), and each of the test compounds (final concentration: 0.01 to 10 µM) or the control compound (5-deoxystrigol, final concentration: 0.01 to 10 µM) as a competitive compound (100 mM HEPES, 150 mM NaCl, pH: 7.0, 0.1% DMSO) was prepared and reacted in a 96 black-well plate (Greiner). Sixty after the initiation of the reaction, fluorescence was detected at an excitation wavelength of 480 nm and a detection wavelength of 520 nm using a fluorescence detector (SpectraMax i3, manufactured by Molecular Devices), and the fluorescence intensity was measured.

HTL4 = molecular target: T2, HTL4 (Striga hermonthica, UniProt A0A0M4AMQ0); conditions: competition with YLG, test range 0.01 to 10 µM, pH 7.0, read-out: IC50 values of test compounds
T2 sequence (A0A0M4AMQ0 1-271): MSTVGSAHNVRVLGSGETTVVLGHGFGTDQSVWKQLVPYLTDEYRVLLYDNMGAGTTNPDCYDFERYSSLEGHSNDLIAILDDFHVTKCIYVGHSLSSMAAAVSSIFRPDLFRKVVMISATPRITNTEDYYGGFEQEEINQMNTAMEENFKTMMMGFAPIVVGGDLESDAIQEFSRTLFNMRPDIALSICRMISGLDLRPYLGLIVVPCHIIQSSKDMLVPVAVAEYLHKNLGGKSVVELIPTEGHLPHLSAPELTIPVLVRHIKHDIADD
Method: (§3) PTL 1 reports that the affinity of a test compound for the strigolactone receptor can be evaluated by reacting strigolactone with a probe for evaluation of affinity for a strigolactone receptor (e.g., YLG) in the presence of the test compound, and measuring the fluorescence emitted from the decomposition product of YLG. Therefore, the compounds synthesized in Example 1 were used as the test compounds, and the affinity for the strigolactone receptor was evaluated by a similar method to the above. The details are as follows.
as §1
as §2, with “measured. Based on the measurement results of fluorescence intensity, a Lineweaver-Burk plot was created to calculate the Km values, and the IC50 values of each of the test compounds and the control compound, which are competitive compounds.” for “measured.”
(§4) In Table 7, HTL1 to HTL11 refer to strigolactone receptors (SEQ ID NOs: 1 to 11), and AtD14 refer to the Arabidopsis thaliana strigolactone receptor.

HTL10 = molecular target: T3, HTL10 (Striga hermonthica, UniProt A0A0M4AH20); conditions: competition with YLG, test range 0.01 to 10 µM, pH 7.0, read-out: IC50 values of test compounds
T3 sequence (A0A0M4AH20 1-268): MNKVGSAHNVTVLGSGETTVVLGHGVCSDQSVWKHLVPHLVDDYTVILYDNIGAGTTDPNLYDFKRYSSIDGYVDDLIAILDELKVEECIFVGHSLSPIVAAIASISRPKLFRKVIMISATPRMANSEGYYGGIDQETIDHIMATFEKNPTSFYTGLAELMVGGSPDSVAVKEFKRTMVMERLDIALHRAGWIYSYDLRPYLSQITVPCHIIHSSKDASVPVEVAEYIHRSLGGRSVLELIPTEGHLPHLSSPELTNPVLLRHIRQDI
Method: as §3, §1
as §2, with “measured. Based on the measurement results of fluorescence intensity, a Lineweaver-Burk plot was created to calculate the Km values, and the IC50 values of each of the test compounds and the control compound, which are competitive compounds.” for “measured.”
as §4

HTL2 = molecular target: T4, HTL2 (Striga hermonthica, UniProt A0A0M4AMP1); conditions: competition with YLG, test range 0.01 to 10 µM, pH 7.0, read-out: IC50 values of test compounds
T4 sequence (A0A0M4AMP1 1-285): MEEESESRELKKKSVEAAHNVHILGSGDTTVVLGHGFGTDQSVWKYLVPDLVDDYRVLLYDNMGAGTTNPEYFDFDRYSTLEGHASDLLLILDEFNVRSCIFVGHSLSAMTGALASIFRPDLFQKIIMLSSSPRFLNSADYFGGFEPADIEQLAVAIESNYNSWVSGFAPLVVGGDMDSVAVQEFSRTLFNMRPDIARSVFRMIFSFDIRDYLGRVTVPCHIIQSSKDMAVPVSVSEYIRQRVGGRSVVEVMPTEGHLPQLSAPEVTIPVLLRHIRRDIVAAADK
Method: as §3, §1
as §2, with “measured. Based on the measurement results of fluorescence intensity, a Lineweaver-Burk plot was created to calculate the Km values, and the IC50 values of each of the test compounds and the control compound, which are competitive compounds.” for “measured.”
as §4

HTL8 = molecular target: T5, HTL8 (Striga hermonthica, UniProt A0A0M4APJ4); conditions: competition with YLG, test range 0.01 to 10 µM, pH 7.0, read-out: IC50 values of test compounds
T5 sequence (A0A0M4APJ4 1-272): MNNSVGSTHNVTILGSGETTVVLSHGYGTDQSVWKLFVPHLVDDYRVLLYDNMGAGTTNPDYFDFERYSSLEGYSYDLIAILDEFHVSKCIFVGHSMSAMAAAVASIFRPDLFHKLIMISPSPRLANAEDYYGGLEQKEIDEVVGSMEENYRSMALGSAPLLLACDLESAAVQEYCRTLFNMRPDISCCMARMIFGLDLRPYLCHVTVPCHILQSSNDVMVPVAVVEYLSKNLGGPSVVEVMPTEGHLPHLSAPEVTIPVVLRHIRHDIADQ
Method: as §3, §1
as §2, with “measured. Based on the measurement results of fluorescence intensity, a Lineweaver-Burk plot was created to calculate the Km values, and the IC50 values of each of the test compounds and the control compound, which are competitive compounds.” for “measured.”
as §4

[1] = AtD14, competition with YLG, test range 0.01 to 10 µM, pH 7.0, read-out: IC50 values of test compounds

CCCCOc1ccc(S(=O)(=O)N2CCN(C(=O)OC3C=C(C)C(=O)O3)CC2)cc1 (stereo not shown) [Compound 1]
IC50 (AtD14): > 10 µM
IC50 (HTL4): > 10 µM
IC50 (HTL10): > 10 µM
IC50 (HTL2): > 10 µM
IC50 (HTL8): 1.1 µM

CCCCOc1ccc(S(=O)(=O)N2CCN(C(=O)OC3C=CC(=O)O3)CC2)cc1 (stereo not shown) [Compound 13]
IC50 (AtD14; [1]): > 10 µM
IC50 (HTL4): > 10 µM
IC50 (HTL10): > 10 µM
IC50 (HTL2): > 10 µM
IC50 (HTL8): > 10 µM

CC1=CC(OC(=O)NCc2ccccc2)OC1=O (stereo not shown) [Comparison Compound 1, reference compound]
IC50 (HTL4): > 10 µM
IC50 (HTL10): > 10 µM
IC50 (HTL2): > 10 µM
IC50 (HTL8): > 10 µM

CC1=CC(OC=C2C(=O)OC3C4=C(CCCC4(C)C)CC23)OC1=O (stereo not shown) [5-Ddeoxystriqol, 5-deoxystrigol, reference compound]
IC50 (AtD14; [1]): 0.44 µM
IC50 (HTL4): 0.3 µM
IC50 (HTL10): 0.62 µM
IC50 (HTL2): 8.9 µM
IC50 (HTL8): 0.36 µM
